Values of other authors as cited in US20040131702A1, “Use of selenite or preparation containing selenite for treating wounds” (priority 2001, published 2004).
“And” between values parts separate entries of the source, which are not always exact repeats. Identical values can stand only once.

Key:
[1] = acid environment
animals = settings: in vivo
human body = settings: in vivo

Row | SMILES | Standard redox potential E0 [1] | Selenium content of food above which animals exhibit symptoms of poisoning (animals) | Selenium content of the daily food above which the human body will fall ill (human body)
1 | O=[Se](O)O [selenite] | −0.740 Volt and −0.740 (acid environment) Volt |  | 
2 | [Se] [selenium] |  | 5 to 10 μg of selenium/g | more than 1 μg of selenium/g
